Patent US11617741B1, “Method for inhibiting growth of bacteria” (priority 2021, dated 2023)
Values after ≈ are worked out from the molar mass of the structure shown. Read-outs that look alike come from different tables or passages of the source. Marks after values point to notes of the source that are not given here.

Assays:
[1] = test system: glyQS T-box; test: qRT-PCR transcriptional read-through of T-box-regulated glyQS (confirmation of inhibition of T-box mechanism); format: cell-based, Bacillus subtilis 1A5; details: for T-Box targeting: confirmation of inhibition of T-box mechanism from qRT-PCR assay; for inhibition of read-through compared with PKZ18: 4 μg/ml of each drug, side by side in same biological replicate; for T-box-controlled expression of glyQS (termination of read-through): B. subtilis 1A5, increasing concentrations, minimal media
From the text: Sample preparation of RNA and cDNA.

[2] = test system: PKZRSA1 (PKZ18-22-resistant MRSA); test: MICs against PKZ18-22-resistant mutant compared to WT MRSA; format: cell-based, Staphylococcus aureus
Procedure: (§1) The 96-well plate was organized as follows. Media (100 μl) were added to all wells.

[3] = test system: S. aureus N315 (MRSA isolate); test: Minimum inhibitory and bactericidal concentration determination; format: cell-based, Staphylococcus aureus; details: for MIC S. aureus N315: Table 2; for MBC S. aureus N315: Table 2, value in parentheses; for MIC: Staphylococcus aureus, MRSA
Procedure: as §1

[4] = test system: E. coli; test: Minimum inhibitory and bactericidal concentration determination, Gram-negative control; format: cell-based, Escherichia coli; details: for MBC E. coli: value in parentheses
Procedure: as §1

[5] = test system: S. aureus N315; test: Checkerboard assay and FIC; format: cell-based, Staphylococcus aureus
Procedure: S. aureus N315 cultures were prepared identically to MIC determination in BHI media. The co-MICs were determined using the checkerboard method. In short, antibiotics to be tested with PKZ18 analogs were diluted 2-fold top to bottom (A to G rows) in a 96-well plate, PKZ18 analogs were diluted 2-fold right to left (columns 11-2 of the 96-well plate), and column 12 was used for vector, media, and growth controls. Each drug was therefore tested by itself and with every dilution of the other drug.
The synergistic and additive interactions were determined based on determined cutoffs using the equation
[formula] where MICAB is the lowest possible concentration of both drugs combined where there is no growth, and MICA and MICB are the MIC values of the individual drugs. For a synergistic drug interaction, the fractional inhibitory concentration (FIC) should be below 0.5, additive or indifferent effects are considered in an FIC range of 0.5 to <4, and an FIC value above 4 is considered antagonistic.

CCc1ccc(-c2csc(NC(=O)C3C4CCC(C4=C(C)C)C3C(=O)O)n2)cc1 (centres unmarked) [PKZ18-58]
T-Box targeting ([1]; Table 1): No | T-Box targeting ([1]; Table 2): No

O=C(N[C@H](CO)[C@H](O)c1ccc([N+](=O)[O-])cc1)C(Cl)Cl [chloramphenicol]
fold lower MIC for PKZRSA1 than WT MRSA [2]: 2 fold

CCCc1ccc(-c2nc(NC(=O)C3C4CCC(O4)C3C(=O)O)sc2C)cc1 (centres unmarked) [PKZ18-56]
T-Box targeting ([1]; Table 1): No | T-Box targeting ([1]; Table 2): No | MIC S. aureus N315 [3]: > 256 mg/L | MBC S. aureus N315 [3]: > 256 mg/L | MIC E. coli [4]: > 256 mg/L | MBC E. coli [4]: > 256 mg/L

Cc1sc(NC(=O)C2C3CCC(O3)C2C(=O)O)nc1-c1ccc(CC(C)C)cc1 (centres unmarked) [PKZ18-57]
T-Box targeting ([1]; Table 1): No | T-Box targeting ([1]; Table 2): No | MIC S. aureus N315 [3]: > 256 mg/L | MBC S. aureus N315 [3]: > 256 mg/L | MIC E. coli [4]: > 256 mg/L | MBC E. coli [4]: > 256 mg/L

Cc1sc(NC(=O)C2C3C=CC(C3)C2C(=O)O)nc1-c1ccc(CC(C)C)cc1 (centres unmarked) [PKZ18-53]
inhibition of read-through compared with PKZ18 [1]: significantly better than PKZ18 | T-box-controlled expression of glyQS (termination of read-through) [1]: inhibited | T-Box targeting ([1]; Table 1): Yes | T-Box targeting ([1]; Table 2): Yes | fold reduction in MIC in minimal compared to rich media ([3]; MRSA strain S. aureus N315): 2 fold | MIC against S. aureus in minimal media ([3]; S. aureus N315, minimal media): 16^b μg/ml | MIC against S. aureus in rich media ([3]; S. aureus N315, rich media): 32^b μg/ml | MIC S. aureus N315 [3]: 32 mg/L (≈ 77.9 µM) | MBC S. aureus N315 [3]: 64 mg/L (≈ 156 µM) | MIC E. coli [4]: > 256 mg/L | MBC E. coli [4]: > 256 mg/L | fractional inhibitory concentration FIC ([5]; with ampicillin): 0.75 | fractional inhibitory concentration FIC ([5]; with chloramphenicol): 0.75 | fractional inhibitory concentration FIC ([5]; with gentamicin): 0.38

CCCCc1ccc(-c2nc(NC(=O)C3C4CCC(O4)C3C(=O)O)sc2C)cc1 (centres unmarked) [PKZ18-54]
T-Box targeting ([1]; Table 1): No | T-Box targeting ([1]; Table 2): No | MIC S. aureus N315 [3]: 128 mg/L (≈ 309 µM) | MBC S. aureus N315 [3]: 256 mg/L (≈ 618 µM) | MIC E. coli [4]: > 256 mg/L | MBC E. coli [4]: > 256 mg/L

COc1ccc(-c2csc(NC(=O)C3C4CCC(C4)C3C(=O)O)n2)cc1 (centres unmarked) [PKZ18-55]
T-Box targeting ([1]; Table 1): No | T-Box targeting ([1]; Table 2): No | MIC S. aureus N315 [3]: > 256 mg/L | MBC S. aureus N315 [3]: > 256 mg/L | MIC E. coli [4]: > 256 mg/L | MBC E. coli [4]: > 256 mg/L

CO[C@H]1/C=C/O[C@@]2(C)Oc3c(C)c(O)c4c(O)c(c(/C=N/N5CCN(C)CC5)c(O)c4c3C2=O)NC(=O)/C(C)=C\C=C\[C@H](C)[C@H](O)[C@@H](C)[C@@H](O)[C@@H](C)[C@H](OC(C)=O)[C@@H]1C [rifampin]
change in the MIC between WT and PKZRSA1 [2]: no change

CCCCc1ccc(-c2nc(NC(=O)C3C4C=CC(C4)C3C(=O)O)sc2C)cc1 (centres unmarked) [PKZ18-52]
inhibition of read-through compared with PKZ18 [1]: significantly better than PKZ18 | T-box-controlled expression of glyQS (termination of read-through) [1]: inhibited | T-Box targeting ([1]; Table 1): Yes | T-Box targeting ([1]; Table 2): Yes | MIC against S. aureus in minimal media ([3]; S. aureus N315, minimal media): 16^b μg/ml | MIC against S. aureus in rich media ([3]; S. aureus N315, rich media): 16-32^b μg/ml | MIC S. aureus N315 [3]: 32 mg/L (≈ 77.9 µM) | MBC S. aureus N315 [3]: 64 mg/L (≈ 156 µM) | MIC E. coli [4]: > 256 mg/L | MBC E. coli [4]: > 256 mg/L | fractional inhibitory concentration FIC ([5]; with gentamicin): 0.38

Cc1onc(-c2ccccc2)c1C(=O)N[C@@H]1C(=O)N2[C@@H]1SC(C)(C)[C@@H]2C(=O)O [oxacillin]
fold increase in MIC against PKZRSA1 compared to WT [2]: 16 fold

C/C(=C\C(=O)OCCCCCCCCC(=O)O)C[C@@H]1OC[C@H](C[C@@H]2O[C@H]2[C@@H](C)[C@H](C)O)[C@@H](O)[C@H]1O [Mupirocin, reference compound]
change of MIC in minimal media compared to rich media ([3]; S. aureus N315): increased MICs | MIC ([3]; S. aureus N315, minimal media, read-out: MIC against S. aureus in minimal media): 1 mg/L (≈ 2 µM) | MIC ([3]; S. aureus N315, rich media, read-out: MIC against S. aureus in rich media): 0.25 mg/L (≈ 0.499 µM) | change in the MIC between WT and PKZRSA1 [2]: no change

CC(C)c1ccc(-c2csc(NC(=O)C3C4CCC(C4)C3C(=O)O)n2)cc1 (centres unmarked) [PKZ18-21]
T-box-controlled expression of glyQS (termination of read-through) [1]: inhibited | T-Box targeting ([1]; Table 1): Yes | T-Box targeting ([1]; Table 2): Yes | MIC S. aureus N315 [3]: 64 mg/L (≈ 166 µM) | MBC S. aureus N315 [3]: > 256 mg/L | MIC E. coli [4]: > 256 mg/L | MBC E. coli [4]: > 256 mg/L
